Reference: paper PMC10045534, “Preparation and Evaluation of 6-Gingerol Derivatives as Novel Antioxidants and Antiplatelet Agents” (Antioxidants, 2023)

Key:
[1] = Oxygen radical absorbance capacity (ORAC); conditions: 1 µM sample; mean ± SEM, n = 3
Protocol: AAPH ((2,20-Azobis(2-methyl-propionamidine) dihydrochloride) free radical and Trolox standard were purchased from Sigma-Aldrich Hungary. Fluorescein was purchased from Fluka Analytical, Tokyo, Japan. ORAC assay was carried out In a 96-well microplate based on the method from previous study. Briefly, 20 µL of the samples (1 µM final concentration, dissolved in phosphate buffer, pH = 7.4, containing 1% MeOH) were mixed with 60 µL of AAPH (12 mM final concentration, dissolved in phosphate buffer, pH = 7.4) and 120 µL of fluorescein solution (70 nM final concentration, dissolved in phosphate buffer), then the fluorescence was measured (excitation at λ = 485 nm, and emission at λ = 520 nm) through 3 h with 1.5-min cycle intervals with a BMG Labtech FluoStar Optima plate-reader. All experiments were carried out in triplicate, and Trolox was used as standard. The antioxidant capacity is expressed as Trolox Equivalent (TE), as calculated using GraphPad Prism 8.0 (La Jolla, CA, USA).

[2] = molecular target: T1, COX-1 enzyme (Ovis aries, UniProt P05979); test: COX-1 inhibitor screening kit, fluorometric (BioVision K548-100); assay type: biochemical; conditions: for LLE(COX-1): LLE = pIC50 − logPpredicted; for IC50: mean ± SEM, n = 2
T1 construct: purchased BioVision (via VWR International Kft.) K548-100
T1 sequence (P05979 25-600): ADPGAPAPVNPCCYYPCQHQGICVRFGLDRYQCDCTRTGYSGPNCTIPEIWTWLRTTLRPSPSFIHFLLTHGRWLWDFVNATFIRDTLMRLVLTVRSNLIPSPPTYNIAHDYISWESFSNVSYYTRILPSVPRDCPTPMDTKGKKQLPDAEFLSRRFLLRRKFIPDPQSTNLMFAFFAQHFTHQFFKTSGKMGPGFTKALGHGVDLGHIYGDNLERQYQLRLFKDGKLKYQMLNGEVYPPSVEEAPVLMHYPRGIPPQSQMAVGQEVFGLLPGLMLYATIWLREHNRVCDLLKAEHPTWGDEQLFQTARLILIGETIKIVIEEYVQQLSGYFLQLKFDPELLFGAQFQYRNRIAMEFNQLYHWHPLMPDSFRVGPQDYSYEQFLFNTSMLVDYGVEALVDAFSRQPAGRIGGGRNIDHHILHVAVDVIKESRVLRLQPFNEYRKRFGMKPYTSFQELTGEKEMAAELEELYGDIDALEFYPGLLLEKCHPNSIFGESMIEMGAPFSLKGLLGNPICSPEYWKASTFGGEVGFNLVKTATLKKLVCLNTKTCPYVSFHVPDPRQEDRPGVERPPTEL
Protocol: COX-1 inhibitory activity was tested based on the fluorometric method as described in BioVision’s COX-1 inhibitor screening kit leafkit (K548-100, BioVision, CA, USA). Sample solutions were prepared by dissolving in DMSO and subsequently buffer, to get desired concentrations. In a 96-well white plate (655101, F-bottom, Grenier bio-one, Germany), 80 µL reaction mix (containing 76 µL assay buffer, 1 µL COX Probe, 2 µL COX cofactor, and 1 µL COX-1 enzyme) was added to 10 µL sample solution, DMSO and assay buffer to get test wells assigned for sample screen (S), negative control (N) and blank, respectively. An aliquot of 10 µL of arachidonic/NaOH solution was added to each well using a multi-channel pipette to initiate the reaction at the same time, and the fluorescence of each well was measured kinetically at Ex/Em 550/610 nm, at 25OC for 10 min using a FluoStar Optima plate reader (BMG Labtech, Ortenberg, Germany). The COX inhibitory activity of SC560, a standard inhibitor, was also determined.
The change in fluorescence between two points, T1 and T2 were determined, and relative inhibition was calculated according to the following equation:% Inhibition = (ΔN − ΔS)/ΔN × 100 (1) where N is the absorbance of the negative control, and S is that of the sample.
Dose-effect studies on the compounds were used to determine the concentration that inhibits 50% of the enzyme activity. The sigmoidal dose–response model was obtained by using the software GraphPad Prism 8.0 (La Jolla, CA, USA), and these were used to determine the IC50 values of the compounds.

[3] = DPPH free radical scavenging assay; conditions: for IC50: 30 min, room temperature, MeOH, mean ± SEM, n = 2, read-out: DDPH IC50
Protocol: All bioactivity data processing, including the calculation of inhibition percentage, mean and corresponding standard error of the mean (SEM), and IC50 values, was performed by GraphPad Prism 8.0 (La Jolla, CA, USA). IC50 values were calculated from the sigmoidal dose–response curves obtained by the log(inhibitor) vs. response and variable slope (DPPH assay) or the log(inhibitor) vs. normalised response and variable slope nonlinear regression model. On the results obtained, no statistical evaluation was performed; instead, differences greater than two-fold were considered relevant. Plotting of the antiplatelet and COX-1 inhibitory IC50 values and the linear regression of the data was performed by Microsoft Excel.
DPPH (1,10-diphenyl-2-picrylhydrazyl) was purchased from Thermo Fisher Scientific. DPPH free radical scavenging assay was performed with some modifications based on the method by previous study. Briefly, in a 96-well microplate, microdilutions of samples (100 µL, starting from 200 µM in HPLC grade MeOH) were made and 100 µL of DPPH reagent (100 µM in MeOH) was added. After 30 min at room temperature in the dark, the absorbance was measured at 550 nm using a FluoStar Optima plate reader (software version 2.20R2, BMG Labtech Ortenberg, Germany). For the blank control, MeOH was used. The scavenging activity was calculated as Inhibition (%) = (A0 − As)/A0 × 100, and IC50 values were calculated by GraphPad Prism 8.0 (La Jolla, CA, USA).

[4] = Peroxynitrite scavenging (pyrogallol red); conditions: % inhibition at 500 µM; mean ± SEM, n = 3
Protocol: Peroxynitrite was synthesised by a continuous flow system using syringe pumps as published previously. Briefly, an acidic solution of hydrogen peroxide (0.6 M H2O2, 0.7 M HCl) was pumped to a junction alongside of sodium nitrite solution (0.6 M) at a flow rate of 1.5 mL/min. After passing 10 cm of tubing, it was mixed with a sodium hydroxide solution (1.5 M), also pumped at 1.5 mL/min. The resulting peroxynitrite solution was a bright yellow colour. The tubing around the reaction was submerged in ice. The concentration of the solution was determined by spectrophotometry and was adjusted to 30 mM with 0.1 M NaOH solution.
In a 96-well microplate 245 µL of pyrogallol red (100 µM final concentration, dissolved in 0.1 M glycine buffer) was mixed with 50 µL of sample (0.5 mM final concentration, dissolved in DMSO) and 5 µL ONOO^– solution (500 µM final concentration, freshly prepared). After mixing and keeping it at room temperature for 30 min the absorbance was measured at 550 nm using a FluoStar Optima plate reader (software version 2.20R2, BMG Labtech, Ortenberg, Germany).

SMILES: CCCCC[C@H](O)C[C@@H](O)CCc1ccc(O)c(OC)c1 [Compound 6, (3S,5S)-1-(4-hydroxy-3-methoxyphenyl)decane-3,5-diol]
- ORAC TE [1]: 1.12 ± 0.03 Trolox equivalents (TE)
- LLE(COX-1) [2]: 1.12
- IC50 [2]: 76.2 ± 0.3 µM
- IC50 [3]: 13.82 ± 0.03 µM
- ONOO^– Scavenging (%) [4]: <5.0%

SMILES: CCCCCc1cc(/C=C/c2ccc(O)cc2)on1 [Compound 18, (E)-4-(2-(3-pentylisoxazol-5-yl)vinyl)phenol]
- ORAC TE [1]: 1.76 ± 0.06 Trolox equivalents (TE)
- IC50 [2]: > 200 µM
- DPPH scavenging activity (in words) [3]: inactive
- IC50 [3]: > 100 µM
- ONOO^– Scavenging (%) [4]: 5.64 ± 1.31%

SMILES: CCCCC/C=C/C(=O)CCc1ccc(O)c(OC)c1 [Compound 2, 6-shogaol]
- ORAC TE [1]: 1.10 ± 0.03 Trolox equivalents (TE)
- LLE(COX-1) [2]: 0.81
- IC50 [2]: 9.8 ± 0.6 µM
- IC50 [3]: 11.4 ± 0.49 µM
- ONOO^– Scavenging (%) [4]: <5.0%

SMILES: CCCCCc1cc(CCc2ccc(O)c(OC)c2)[nH]n1 [Compound 14, 2-methoxy-4-(2-(3-pentyl-1H-pyrazol-5-yl)ethyl)phenol]
- ORAC TE [1]: 0.44 ± 0.07 Trolox equivalents (TE)
- LLE(COX-1) [2]: 0.74
- IC50 [2]: 3.6 ± 0.2 µM
- IC50 [3]: 16.2 ± 0.46 µM
- ONOO^– Scavenging (%) [4]: <5.0%

SMILES: CCCCCc1cc(/C=C/c2ccc(O)c(OC)c2)on1 [Compound 17, (E)-2-methoxy-4-(2-(3-pentylisoxazol-5-yl)vinyl)phenol]
- ORAC TE [1]: 0.77 ± 0.20 Trolox equivalents (TE)
- LLE(COX-1) [2]: 0.83
- IC50 [2]: 5.85 ± 0.04 µM
- IC50 [3]: 8.13 ± 0.21 µM
- ONOO^– Scavenging (%) [4]: 38.40 ± 3.05%

SMILES: CCCCC[C@H](O)CC(=O)CCc1ccc(O)c(OC)c1 [Compound 1, (S)-5-hydroxy-1-(4-hydroxy-3-methoxyphenyl)decan-3-one]
- ORAC TE [1]: 1.30 ± 0.04 Trolox equivalents (TE)
- LLE(COX-1) [2]: 1.30
- IC50 [2]: 62.5 ± 23.8 µM
- IC50 [3]: 8.92 ± 0.46 µM
- ONOO^– Scavenging (%) [4]: <5.0%

SMILES: CCCCCc1cc(CCc2ccc(O)cc2)[nH]n1 [Compound 15, 4-(2-(3-pentyl-1H-pyrazol-5-yl)ethyl)phenol]
- ORAC TE [1]: 1.00 ± 0.02 Trolox equivalents (TE)
- IC50 [2]: > 200 µM
- DPPH scavenging activity (in words) [3]: inactive
- IC50 [3]: > 200 µM
- ONOO^– Scavenging (%) [4]: <5.0%

SMILES: CCCCC[C@H](O)C[C@H](O)CCc1ccc(O)c(OC)c1 [Compound 5, (3R,5S)-1-(4-hydroxy-3-methoxyphenyl)decane-3,5-diol]
- ORAC TE [1]: 2.30 ± 0.05 Trolox equivalents (TE)
- LLE(COX-1) [2]: 1.27
- IC50 [2]: 54.3 ± 6.5 µM
- IC50 [3]: 6.51 ± 0.28 µM
- ONOO^– Scavenging (%) [4]: <5.0%

SMILES: CCCCCCCC(CCc1ccc(O)c(OC)c1)=NO [Compound 4, 1-(4-hydroxy-3-methoxyphenyl)decan-3-one oxime]
- ORAC TE [1]: 0.47 ± 0.09 Trolox equivalents (TE)
- LLE(COX-1) [2]: 0.48
- IC50 [2]: 5.2 ± 0.3 µM
- IC50 [3]: 8.56 ± 0.07 µM
- ONOO^– Scavenging (%) [4]: <5.0%

SMILES: CCCCCCCNC(=O)CCc1ccc(O)c(OC)c1 [Compound 22]
- ORAC TE [1]: 1.62 ± 0.004 Trolox equivalents (TE)
- IC50 [2]: > 100 µM
- IC50 [3]: 14.1 ± 0.21 µM
- ONOO^– Scavenging (%) [4]: <5.0%

SMILES: CCCCCc1cc(/C=C/c2ccc(O)cc2)[nH]n1 [Compound 16, (E)-4-(2-(3-pentyl-1H-pyrazol-5-yl)vinyl)phenol]
- ORAC TE [1]: 2.88 ± 0.16 Trolox equivalents (TE)
- LLE(COX-1) [2]: −0.04
- IC50 [2]: 17.5 ± 0.1 µM
- IC50 [3]: 19 ± 1.63 µM
- ONOO^– Scavenging (%) [4]: <5.0%

SMILES: CCCCCCCC(=O)CCc1ccc(O)c(OC)c1 [Compound 3, 4,5-dihydro-6-shogaol]
- ORAC TE [1]: 1.36 ± 0.02 Trolox equivalents (TE)
- LLE(COX-1) [2]: 1.26
- IC50 [2]: 4.4 ± 0.2 µM
- IC50 [3]: 9.43 ± 0.16 µM
- ONOO^– Scavenging (%) [4]: <5.0%
